Values after ≈ are worked out from the molar mass of the structure shown.
Experiments:
E. coli ATCC 25922 = experiment: MIC, E. coli ATCC 25922; format: cell-based; settings: Alamar Blue read after overnight incubation at 35° C.; for MIC Ec: E. coli; for MIC: Escherichia coli, ATCC25922, E. coli
S. aureus ATCC 13709 = experiment: MIC, S. aureus ATCC 13709 (Alamar Blue broth microdilution); format: cell-based; settings: Alamar Blue read after overnight incubation at 35° C.; for MIC Sa: S. aureus; for MIC: Staphylococcus aureus, ATCC13709, S. aureus

| Structure (SMILES) | MIC Ec (E. coli ATCC 25922) | MIC Sa (S. aureus ATCC 13709) | MIC (E. coli ATCC 25922) | MIC (S. aureus ATCC 13709) |
| --- | --- | --- | --- | --- |
| CNc1cc(F)cc2c1[nH]c1nc(Oc3cnc(C)nc3)nc(N3CC4(CCCNC4)C3)c12 [4.149] | 2 µg/mL (≈ 4.46 µM) | ≤0.5 µg/mL |  |  |
| CNc1cc(F)cc2c1[nH]c1nc(Oc3cnc(C)nc3)nc(N3CC4C(N)CC4(C)C3)c12 (stereo not drawn) [4.150] | 1 µg/mL (≈ 2.23 µM) | ≤0.5 µg/mL |  |  |
| CNc1cc(F)cc2c1[nH]c1nc(Oc3cnc(C)nc3)nc(N3CCC(N)C(C)(C)C3)c12 (stereo not drawn) [4.152] |  |  | 1 µg/mL (≈ 2.22 µM) | ≤ 0.5 µg/mL |
| CNc1cc(F)cc2c1[nH]c1nc(Oc3cnc(C)nc3)nc(N3CC4(CC(N)C4)C3)c12 [4.153] | 2 µg/mL (≈ 4.6 µM) | ≤0.5 µg/mL |  |  |
| CNc1cc(F)cc2c1[nH]c1nc(Oc3cnc(C)nc3)nc(N3CC4CC(N)C3C4)c12 (stereo not drawn) [4.154] | 16 µg/mL (≈ 36.8 µM) | 2 µg/mL (≈ 4.6 µM) |  |  |
| CNc1cc(F)cc2c1[nH]c1nc(Oc3cnc(C)nc3)nc(N[C@@H]3CC4CC3CN4)c12 (stereo partly drawn) [4.155] |  |  | > 16 µg/mL | 2 µg/mL (≈ 4.6 µM) |
| CNc1cc(F)cc2c1[nH]c1nc(Oc3cnc(C)nc3)nc(N3C[C@@H]4CCN[C@@H]4C3)c12 [4.156] |  |  | ≤ 0.5 µg/mL | ≤ 0.5 µg/mL |
| CNc1cc(F)cc2c1[nH]c1nc(Oc3cnc(C)nc3)nc(N3CC(N4CC(N)C4)C3)c12 [4.158] | 4 µg/mL (≈ 8.9 µM) | ≤0.5 µg/mL |  |  |
| CNc1cc(F)cc2c1[nH]c1nc(Oc3cnc(C)nc3)nc(N3CCC(F)(CN)CC3)c12 [4.159] |  |  | ≤ 0.5 µg/mL | ≤ 0.5 µg/mL |
| CNc1cc(F)cc2c1[nH]c1nc(Oc3cnc(C)nc3)nc(-c3ccc(Cl)cc3N)c12 [4.161] | ≤0.5 µg/mL | ≤0.5 µg/mL |  |  |
| CNc1cc(F)cc2c1[nH]c1nc(Oc3cnc(C)nc3)nc(C3=CCNCC3)c12 [4.162] | >16 µg/mL | 8 µg/mL (≈ 19.7 µM) |  |  |
| CNc1cc(F)cc2c1[nH]c1nc(Oc3cnc(C)nc3)nc(N3CCNCC3)c12 [4.163] | ≤0.5 µg/mL | ≤0.5 µg/mL |  |  |
| CNc1cc(F)cc2c1[nH]c1nc(Oc3cncc(OC)c3)nc(N3CC4C(N)C4C3)c12 (stereo not drawn) [4.164] |  |  | 1 µg/mL (≈ 2.3 µM) | ≤ 0.5 µg/mL |
| CNc1cc(F)cc2c1[nH]c1nc(Oc3cncc(OC)c3)nc(N3C[C@H](N)C4(CC4)C3)c12 [4.165] |  |  | 1 µg/mL (≈ 2.22 µM) | ≤ 0.5 µg/mL |
| CNc1cc(F)cc2c1[nH]c1nc(Oc3cncc(OC)c3)nc(N3CCC4CNC4C3)c12 (stereo not drawn) [4.166] |  |  | 2 µg/mL (≈ 4.45 µM) | ≤ 0.5 µg/mL |
| CNc1cc(F)cc2c1[nH]c1nc(Oc3cncc(-c4nnnn4C)c3)nc(N3CC4C(N)C4C3)c12 (stereo not drawn) [4.168] |  |  | 2 µg/mL (≈ 4.1 µM) | ≤ 0.5 µg/mL |
| CNc1cc(F)cc2c1[nH]c1nc(Oc3cncc(-c4nnnn4C)c3)nc(N3CC[C@@H](N)C3)c12 [4.169] |  |  | 8 µg/mL (≈ 16.8 µM) | 2 µg/mL (≈ 4.21 µM) |
| CNc1cc(F)cc2c1[nH]c1nc(Oc3cncc(-c4nnnn4C)c3)nc(N3CC4CNC(C4)C3)c12 (stereo not drawn) [4.170] |  |  | > 16 µg/mL | 2 µg/mL (≈ 3.99 µM) |
| CNc1cc(F)cc2c1[nH]c1nc(Oc3cnc(N)nc3)nc(N3CC4C(N)C4C3)c12 (stereo not drawn) [4.172] |  |  | ≤ 0.5 µg/mL | ≤ 0.5 µg/mL |
| CNc1cc(F)cc2c1[nH]c1nc(Oc3cnc(N)nc3)nc(N3CCC4(CC4N)C3)c12 (stereo not drawn) [4.173] |  |  | 1 µg/mL (≈ 2.3 µM) | ≤ 0.5 µg/mL |
| CNc1cc(F)cc2c1[nH]c1nc(Oc3cnc(N)nc3)nc(N3CC4CNC(C4)C3)c12 (stereo not drawn) [4.175] |  |  | 8 µg/mL (≈ 18.4 µM) | ≤ 0.5 µg/mL |
| CNc1cc(F)cc2c1[nH]c1nc(Oc3cnc(N)nc3)nc(N3CCC(CN)C3)c12 (stereo not drawn) [4.176] |  |  | 1 µg/mL (≈ 2.36 µM) | ≤ 0.5 µg/mL |
| CNc1cc(F)cc2c1[nH]c1nc(Oc3cnc(N)nc3)nc(N3CC(N)C4(CC4)C3)c12 (stereo not drawn) [4.177] | ≤0.5 µg/mL | ≤0.5 µg/mL |  |  |
| CNc1cc(F)cc2c1[nH]c1nc(Oc3cnc(N)nc3)nc(N3CC4CNC4C3)c12 (stereo not drawn) [4.178] |  |  | 8 µg/mL (≈ 19 µM) | ≤ 0.5 µg/mL |
| CNc1cc(F)cc2c1[nH]c1nc(Oc3cnc(N)nc3)nc(N3CCC(N)C3)c12 (stereo not drawn) [4.179] | 1 µg/mL (≈ 2.44 µM) | ≤0.5 µg/mL |  |  |
| CNc1cc(F)cc2c1[nH]c1nc(Oc3cnc(N)nc3)nc(N3CCCC(N)C3)c12 (stereo not drawn) [4.180] | 8 µg/mL (≈ 18.9 µM) | 1 µg/mL (≈ 2.36 µM) |  |  |
| CNc1cc(F)cc2c1[nH]c1nc(Oc3cnc(N)nc3)nc(N3CCC4CNC4C3)c12 (stereo not drawn) [4.181] |  |  | 8 µg/mL (≈ 18.4 µM) | ≤ 0.5 µg/mL |

| Structure (SMILES) | MIC Ec (E. coli ATCC 25922) | MIC Sa (S. aureus ATCC 13709) | MIC (E. coli ATCC 25922) | MIC (S. aureus ATCC 13709) |
| --- | --- | --- | --- | --- |
| CNc1cc(F)cc2c1[nH]c1nc(Oc3cnc(N)nc3)nc(N3CC(NC(=O)CN)C4(CC4)C3)c12 (stereo not drawn) [4.182] | 16 µg/mL (≈ 32.5 µM) | 2 µg/mL (≈ 4.06 µM) |  |  |
| CNc1cc(F)cc2c1[nH]c1nc(Oc3cnc(N)nc3)nc(N3C4CCC3CC(N)C4)c12 (stereo not drawn) [4.183] |  |  | 8 µg/mL (≈ 17.8 µM) | 1 µg/mL (≈ 2.22 µM) |
| CNc1cc(F)cc2c1[nH]c1nc(Oc3cnc(N)nc3)nc(N3CC4CC4(CN)C3)c12 (stereo not drawn) [4.185] |  |  | 8 µg/mL (≈ 18.4 µM) | ≤ 0.5 µg/mL |
| CNc1cc(F)cc2c1[nH]c1nc(Oc3cnc(N)nc3)nc(N3C[C@H]4CC[C@@H](N)[C@H]4C3)c12 [4.186] |  |  | 2 µg/mL (≈ 4.45 µM) | ≤ 0.5 µg/mL |
| CNc1cc(F)cc2c1[nH]c1nc(Oc3cnc(N)nc3)nc(N3C[C@H]4CCN[C@H]4C3)c12 [4.187] |  |  | 2 µg/mL (≈ 4.59 µM) | ≤ 0.5 µg/mL |
| CNc1cc(F)cc2c1[nH]c1nc(Oc3cnc(N)nc3)nc(N3CC4C(CN)C4C3)c12 (stereo not drawn) [4.188] |  |  | 8 µg/mL (≈ 18.4 µM) | ≤ 0.5 µg/mL |
| CNc1cc(F)cc2c1[nH]c1nc(Oc3cnc(N)nc3)nc(N3CC4CCC(N)C4C3)c12 (stereo not drawn) [4.189] |  |  | 2 µg/mL (≈ 4.45 µM) | ≤ 0.5 µg/mL |
| CNc1cc(F)cc2c1[nH]c1nc(Oc3cnc(N)nc3)nc(N3CC4C[C@@H](N)C4C3)c12 (stereo partly drawn) [4.190] |  |  | 1 µg/mL (≈ 2.3 µM) | ≤ 0.5 µg/mL |
| CNc1cc(F)cc2c1[nH]c1nc(Oc3cnc(N)nc3)nc(N3C[C@H]4CC3C[C@H]4N)c12 [4.191] |  |  | 2 µg/mL (≈ 4.59 µM) | ≤ 0.5 µg/mL |
| CNc1cc(F)cc2c1[nH]c1nc(Oc3cnc(SC)nc3)nc(N3CC4C(N)C4C3)c12 (stereo not drawn) [4.193] |  |  | ≤ 0.5 µg/mL | ≤ 0.5 µg/mL |
| CNc1cc(F)cc2c1[nH]c1nc(Oc3cnc(SC)nc3)nc(N3C[C@H](N)C4(CC4)C3)c12 [4.194] |  |  | ≤ 0.5 µg/mL | ≤ 0.5 µg/mL |
| CNc1cc(F)cc2c1[nH]c1nc(Oc3cnc(SC)nc3)nc(N3CCC4(CC4N)C3)c12 (stereo not drawn) [4.195] |  |  | 1 µg/mL (≈ 2.14 µM) | ≤ 0.5 µg/mL |
| CNc1cc(F)cc2c1[nH]c1nc(Oc3cnc(SC)nc3)nc(N3CC4CC(N)C4C3)c12 (stereo not drawn) [4.196] |  |  | ≤ 0.5 µg/mL | ≤ 0.5 µg/mL |
| CNc1cc(F)cc2c1[nH]c1nc(Oc3cnc(SC)nc3)nc(N3CC4C(CN)C4C3)c12 (stereo not drawn) [4.197] | ≤0.5 µg/mL | ≤0.5 µg/mL |  |  |
| CNc1cc(F)cc2c1[nH]c1nc(Oc3cnc(SC)nc3)nc(N3CC4CCNC4C3)c12 (stereo not drawn) [4.198] |  |  | ≤ 0.5 µg/mL | ≤ 0.5 µg/mL |
| CNc1cc(F)cc2c1[nH]c1nc(Oc3cnc(SC)nc3)nc(N3CCC(N)C3)c12 (stereo not drawn) [4.199] | ≤0.5 µg/mL | ≤0.5 µg/mL |  |  |
| CNc1cc(F)cc2c1[nH]c1nc(Oc3cnc(SC)nc3)nc(N3CC4CCC(N)C4C3)c12 (stereo not drawn) [4.200] | ≤0.5 µg/mL | ≤0.5 µg/mL |  |  |
| CNc1cc(F)cc2c1[nH]c1nc(Oc3cnc(SC)nc3)nc(N3CC4C[C@@H](N)C4C3)c12 (stereo partly drawn) [4.201] |  |  | ≤ 0.5 µg/mL | ≤ 0.5 µg/mL |
| CNc1cc(F)cc2c1[nH]c1nc(Oc3cnc(SC)nc3)nc(N3CCC4(C[C@H]4N)C3)c12 (stereo partly drawn) [4.203] | ≤0.5 µg/mL | ≤0.5 µg/mL |  |  |
| CNc1cc(F)cc2c1[nH]c1nc(Oc3cnc(SC)nc3)nc(N3C[C@H]4C[C@@H]3C[C@H]4N)c12 [4.204] | ≤0.5 µg/mL | ≤0.5 µg/mL |  |  |
| CNc1cc(F)cc2c1[nH]c1nc(Oc3cncc(-c4cncnc4)c3)nc(N3CC4C(N)C4C3)c12 (stereo not drawn) [4.205] |  |  | ≤ 0.5 µg/mL | ≤ 0.5 µg/mL |
| CNc1cc(F)cc2c1[nH]c1nc(Oc3cncc(-c4cn[nH]c4)c3)nc(N3CC4C(N)C4C3)c12 (stereo not drawn) [4.206] |  |  | 4 µg/mL (≈ 8.48 µM) | ≤ 0.5 µg/mL |
| CNc1cc(F)cc2c1[nH]c1nc(Oc3cnc(N(C)C)nc3)nc(N3CCC(N)C3)c12 (stereo not drawn) [4.207] | ≤0.5 µg/mL | ≤0.5 µg/mL |  |  |
| CNc1cc(F)cc2c1[nH]c1nc(Oc3cnc(N(C)C)nc3)nc(N3CC4C(N)C4C3)c12 (stereo not drawn) [4.208] |  |  | ≤ 0.5 µg/mL | ≤ 0.5 µg/mL |
| CNc1cc(F)cc2c1[nH]c1nc(Oc3cnc(N(C)C)nc3)nc(N3C[C@H](N)C4(CC4)C3)c12 [4.209] |  |  | ≤ 0.5 µg/mL | ≤ 0.5 µg/mL |
| CNc1cc(F)cc2c1[nH]c1nc(Oc3cncc(-c4nnn(C)n4)c3)nc(N3CC4C(N)C4C3)c12 (stereo not drawn) [4.210] | 1 µg/mL (≈ 2.05 µM) | ≤0.5 µg/mL |  |  |
| CNc1cc(F)cc2c1[nH]c1nc(Oc3cnc(N4CCOCC4)nc3)nc(N3CC4C(N)C4C3)c12 (stereo not drawn) [4.211] | >16 µg/mL | 16 µg/mL (≈ 32.6 µM) |  |  |

— patent publication US10858360B2, “Tricyclic gyrase inhibitors” (priority 2011, dated 2020)
